{
  "source": "patent US20030095958A1",
  "about": "“Inhibitors of bace” (priority 2001, published 2003)",
  "note": "pKi: −log10 of the molar value.",
  "data": [
    {"biological_target": "BACE (Homo sapiens, UniProt P56817)", "sequence (P56817 46-501)": "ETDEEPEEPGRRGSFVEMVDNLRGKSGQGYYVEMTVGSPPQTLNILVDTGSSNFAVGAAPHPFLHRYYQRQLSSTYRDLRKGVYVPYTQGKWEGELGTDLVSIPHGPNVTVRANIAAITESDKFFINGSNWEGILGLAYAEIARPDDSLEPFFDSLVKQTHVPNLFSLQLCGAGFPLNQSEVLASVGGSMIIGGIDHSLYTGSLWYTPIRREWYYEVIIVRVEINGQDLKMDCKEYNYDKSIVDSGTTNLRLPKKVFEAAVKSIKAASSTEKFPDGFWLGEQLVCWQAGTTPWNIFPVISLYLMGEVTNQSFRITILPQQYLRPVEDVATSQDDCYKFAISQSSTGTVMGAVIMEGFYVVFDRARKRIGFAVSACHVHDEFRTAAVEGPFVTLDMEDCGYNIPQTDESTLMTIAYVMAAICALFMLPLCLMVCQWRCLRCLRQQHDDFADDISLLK", "assay": "Ki Determination for the Inhibition of BACE (FS-1 peptide fluorescence cleavage assay)", "assay_type": "biochemical", "settings": "apparent Ki; 50 nM BACE, 10 μM FS-1 substrate, 0.1M sodium acetate pH 4.5", "experimental": "Compounds were tested against BACE activity using the following modifications of the method described in J. Ermolieff et al. (2000) Biochemistry 39(51):16263.\nAll compound evaluations were performed in 0.1M sodium acetate (buffer), pH, 4.5, 10 μM substrate (FS-1 peptide as described in the reference above; this is commercially available), varying concentrations of the test compound or control (DMSO to yeild 2% vol/vol), and 50 nM BACE. The assay volume is 100 μL.\nTwo microliters of the test compound dissolved in DMSO are added to each well in a 96-well microtiter plate. Seventy eight microliters of BACE are mixed with buffer and added to each well then incubated at room temperature for 15 minutes. A stock solution of 50 μM FS-1 substrate was prepared by addition of an aliquot of FS-1 substrate which was dissolved in DMSO to the buffer and mixed well. The reaction is initiated by addition of 20 μL of the FS-1 mix to the remaining, preincubated assay components. The cleavage reaction of substrate to product is measured using a Molecular Devices fluorescence plate reader with the excitation and emission filter pairs of 355 nm and 495 nm, respectively. Apparent Ki values are determined by fitting the data to the integrated equation for competitive tight binding inhibition.", "values": [
      {"smiles": "O=C(C1CNCCC1c1ccc(COc2ccccc2C(F)(F)F)cc1)N1CCc2ccccc2C1", "note": "(stereo not shown) [Compound 205, (3,4-Dihydro-1H-isoquinolin-2-yl)-{4-[4-(2-trifluoromethyl-phenoxymethyl)-phenyl]-piperidin-3-yl}-methanone]", "pKi": "< 4.52"},
      {"smiles": "O=C(C1CNCCC1c1ccc(COc2ccccc2C(F)(F)F)cc1)N(Cc1ccccc1)c1ccc2ccccc2c1", "note": "(stereo not shown) [Compound 220, 4-[4-(2-Trifluoromethyl-phenoxymethyl)-phenyl]-piperidine-3-carboxylic acid benzyl-naphthalen-2-yl-amide]", "pKi": "4.52 to 5.52"},
      {"smiles": "FC(F)(F)c1ccccc1OCc1ccc(COc2cccc3ncccc23)c(C2=CCNCC2)c1", "note": "[Compound 327, 5-[2-(1,2,3,6-Tetrahydro-pyridin-4-yl)-4-(2-trifluoromethyl-phenoxymethyl)-benzyloxy]-quinoline]", "pKi": "> 5.52"},
      {"smiles": "Cc1c(COc2ccc3c(c2)c2c(n3Cc3ccc4ccccc4c3)CNCC2)cccc1C(F)(F)F", "note": "[Compound 522, 6-(2-Methyl-3-trifluoromethyl-benzyloxy)-9-naphthalen-2-ylmethyl-2,3,4,9-tetrahydro-1H-b-carboline]", "pKi": "> 5.52"},
      {"smiles": "O=S(=O)(Nc1cc(-c2ccc(Cl)c(Cl)c2)ccc1N1CCNCC1)c1ccc(-c2ccc(C(F)(F)F)cc2)cc1", "note": "[Compound 179, 4′-Trifluoromethyl-biphenyl-4-sulfonic acid (3′,4′-dichloro-4-piperazin-1-yl-biphenyl-3-yl)-amide]", "pKi": "4.52 to 5.52"},
      {"smiles": "O=C(COCc1ccccc1)OCc1ccc(COc2ccccc2C(F)(F)F)cc1C1=CCNCC1", "note": "[Compound 315, Benzyloxy-acetic acid 2-(1,2,3,6-tetrahydro-pyridin-4-yl)-4-(2-trifluoromethyl-phenoxymethyl)-benzyl ester]", "pKi": "4.52 to 5.52"},
      {"smiles": "O=C(Nc1cc(C(F)(F)F)c(-c2cc(Cl)ccc2Cl)cc1N1CCNCC1)c1cccc2ccccc12", "note": "[Compound 169, Naphthalene-1-carboxylic acid (2′,5′-dichloro-5-piperazin-1-yl-2-trifluoromethyl-biphenyl-4-yl)-amide]", "pKi": "> 5.52"},
      {"smiles": "O=C(Nc1cc(-c2ccsc2)ccc1N1CCNCC1)c1cccc2ccccc12", "note": "[Compound 153, Naphthalene-1-carboxylic acid (2-piperazin-1-yl-5-thiophen-3-yl-phenyl)-amide]", "pKi": "4.52 to 5.52"},
      {"smiles": "O=C(c1cccc2ccccc12)n1c2c(c3cc(OCc4ccccc4I)ccc31)CCNC2", "note": "[Compound 528, [6-(2-Iodo-benzyloxy)-1,2,3,4-tetrahydro-b-carbolin-9-yl]-naphthalen-1-yl-methanone]", "pKi": "> 5.52"},
      {"smiles": "O=Cc1cc(-c2ccc(N3CCNCC3)c(NC(=O)c3cccc4ccccc34)c2)ccc1F", "note": "[Compound 105, Naphthalene-1-carboxylic acid (4′-fluoro-3′-formyl-4-piperazin-1-yl-biphenyl-3-yl)-amide]", "pKi": "4.52 to 5.52"},
      {"smiles": "COC(=O)c1cc(OCc2ccc(COc3ccccc3C(F)(F)F)cc2C2=CCNCC2)cc(C(=O)OC)c1", "note": "[Compound 330, 5-[2-(1,2,3,6-Tetrahydro-pyridin-4-yl)-4-(2-trifluoromethyl-phenoxymethyl)-benzyloxy]-isophthalic acid dimethyl ester]", "pKi": "> 5.52"},
      {"smiles": "FC(F)(F)c1ccc(OCc2ccc(COc3ccccc3C(F)(F)F)cc2C2=CCNCC2)cc1", "note": "[Compound 323, 4-[5-(2-Trifluoromethyl-phenoxymethyl)-2-(4-trifluoromethyl-phenoxymethyl)-phenyl]-1,2,3,6-tetrahydro-pyridine]", "pKi": "> 5.52"},
      {"smiles": "FC(F)(F)c1ccccc1OCc1ccc(COc2ccc3ccccc3c2)c(C2=CCNCC2)c1", "note": "[Compound 321, 4-[2-(Naphthalen-2-yloxymethyl)-5-(2-trifluoromethyl-phenoxymethyl)-phenyl]-1,2,3,6-tetrahydro-pyridine]", "pKi": "> 5.52"},
      {"smiles": "FC(F)(F)c1ccccc1OCc1cc(C2=CCNCC2)c(COc2ccccc2C(F)(F)F)cc1Br", "note": "[Compound 333, 4-[4-Bromo-2,5-bis-(2-trifluoromethyl-phenoxymethyl)-phenyl]-1,2,3,6-tetrahydro-pyridine]", "pKi": "> 5.52"},
      {"smiles": "COc1ccc2c(C(=O)Nc3cc(C(F)(F)F)ccc3N3CCNCC3)cccc2c1", "note": "[Compound 143, 6-Methoxy-naphthalene-1-carboxylic acid (2-piperazin-1-yl-5-trifluoromethyl-phenyl)-amide]", "pKi": "< 4.52"},
      {"smiles": "FC(F)(F)c1cccc(OCc2ccc(COc3ccccc3C(F)(F)F)cc2C2=CCNCC2)c1", "note": "[Compound 324, 4-[5-(2-Trifluoromethyl-phenoxymethyl)-2-(3-trifluoromethyl-phenoxymethyl)-phenyl]-1,2,3,6-tetrahydro-pyridine]", "pKi": "> 5.52"},
      {"smiles": "CCOC(=O)c1c(C)[nH]c2ccc(OCc3ccc(COc4ccccc4C(F)(F)F)cc3C3=CCNCC3)cc12", "note": "[Compound 332, 2-Methyl-5-[2-(1,2,3,6-tetrahydro-pyridin-4-yl)-4-(2-trifluoromethyl-phenoxymethyl)-benzyloxy]-1H-indole-3-carboxylic acid ethyl ester]", "pKi": "> 5.52"},
      {"smiles": "O=C(Nc1ccc2ccccc2c1)c1ccc(COc2ccccc2C(F)(F)F)cc1C1=CCNCC1", "note": "[Compound 308, N-Naphthalen-2-yl-2-{1,2,3,6-tetrahydro-pyridin-4-yl)-4-(2-trifluoromethyl-phenoxymethyl)-benzamide]", "pKi": "4.52 to 5.52"},
      {"smiles": "O=C(Nc1ccc(OCc2ccccc2)cc1N1CCNCC1)c1cccc2ccccc12", "note": "[Compound 156, Naphthalene-1-carboxylic acid (4-benzyloxy-2-piperazin-1-yl-phenyl)-amide]", "pKi": "< 4.52"},
      {"smiles": "O=C(Nc1ccc(-c2ccc(Cl)c(Cl)c2)nc1N1CCNCC1)c1cccc2ccccc12", "note": "[Compound 227, Naphthalene-1-carboxylic acid [6-(3,4-dichloro-phenyl)-2-piperazin-1-yl-pyridin-3-yl]-amide]", "pKi": "> 5.52"},
      {"smiles": "O=C(OCc1ccccc1-c1ccc(C2=CCNCC2)c(COc2ccccc2C(F)(F)F)c1)c1ccccc1", "note": "[Compound 379, Benzoic acid 4′-(1,2,3,6-tetrahydro-pyridin-4-yl)-3′-(2-trifluoromethyl-phenoxymethyl)-biphenyl-2-yl methyl ester]", "pKi": "> 5.52"},
      {"smiles": "Fc1cccc(F)c1-c1cc(COc2ccccc2C(F)(F)F)c(C2=CCNCC2)cc1COc1ccccc1C(F)(F)F", "note": "[Compound 349, 4-[2′,6′-Difluoro-2,5-bis-(2-trifluoromethyl-phenoxymethyl)-biphenyl-4-yl]-1,2,3,6-tetrahydro-pyridine]", "pKi": "> 5.52"},
      {"smiles": "O=c1cc(-c2ccccc2)nc(C2CCNCC2)n1Cc1ccc2ccccc2c1", "note": "[Compound 218, 3-Naphthalen-2-ylmethyl-6-phenyl-2-piperidin-4-yl-3H-pyrimidin-4-one]", "pKi": "4.52 to 5.52"},
      {"smiles": "O=C(Nc1cc(-c2ccc(Cl)cc2Cl)ccc1N1CCNCC1)c1cccc2ccccc12", "note": "[Compound 107, Naphthalene-1-carboxylic acid (2′,4′-dichloro-4-piperazin-1-yl-biphenyl-3-yl)-amide]", "pKi": "> 5.52"},
      {"smiles": "O=C(Nc1cc(-c2cc(Cl)ccc2Cl)ccc1N1CCNCC1)c1cccc2ccccc12", "note": "[Compound 108, Naphthalene-1-carboxylic acid (2′,5′-dichloro-4-piperazin-1-yl-biphenyl-3-yl)-amide]", "pKi": "> 5.52"},
      {"smiles": "O=S(=O)(NCC1CNCCC1c1ccc(COc2ccccc2C(F)(F)F)cc1)c1ccc2ccccc2c1", "note": "(stereo not shown) [Compound 231, Naphthalene-2-sulfonic acid {4-[4-(2-trifluoromethyl-phenoxymethyl)-phenyl]-piperidin-3-ylmethyl}-amide]", "pKi": "> 5.52"},
      {"smiles": "CC(NC(=O)C1CNCCC1c1ccc(-c2ccccc2)cc1)c1cccc2ccccc12", "note": "(stereo not shown) [Compound 405]", "pKi": "4.52 to 5.52"},
      {"smiles": "O=C(Nc1cc(-c2ccc(Cl)c(Cl)c2)ccc1N1CCNCC1)c1cccc2ccccc12", "note": "[Compound 130, Naphthalene-1-carboxylic acid (3′,4′-dichloro-4-piperazin-1-yl-biphenyl-3-yl)-amide]", "pKi": "> 5.52"},
      {"smiles": "C1=C(c2cc(COc3ccc4ccccc4c3)c(-c3ccccc3)cc2COc2ccc3ccccc3c2)CCNC1", "note": "[Compound 307, 4-[2,5-Bis-(naphthalen-2-yloxymethyl)-biphenyl-4-yl]-1,2,3,6-tetrahydro-pyridine]", "pKi": "> 5.52"},
      {"smiles": "O=C(Nc1cc(F)c(-c2ccc(C(F)(F)F)cc2)cc1N1CCNCC1)c1cccc2ccccc12", "note": "[Compound 159, Naphthalene-1-carboxylic acid (2-fluoro-5-piperazin-1-yl-4′-trifluoromethyl-biphenyl-4-yl)-amide]", "pKi": "> 5.52"},
      {"smiles": "CC(C)(C)c1ccc(C(=O)Nc2cc(C(F)(F)F)ccc2N2CCNCC2)cc1", "note": "[Compound 117, 4-tert-Butyl-N-(2-piperazin-1-yl-5-trifluoromethyl-phenyl)-benzamide]", "pKi": "< 4.52"},
      {"smiles": "O=C(Nc1cc(C(F)(F)F)ccc1N1CCNCC1)c1nccc2ccccc12", "note": "[Compound 102, Isoquinoline-1-carboxylic acid (2-piperazin-1-yl-5-trifluoromethyl-phenyl)-amide]", "pKi": "4.52 to 5.52"},
      {"smiles": "O=C(NC1CCCc2ccccc21)C1CNCCC1c1ccc(COc2ccccc2C(F)(F)F)cc1", "note": "(stereo not shown) [Compound 209, 4-[4-(2-Trifluoromethyl-phenoxymethyl)-phenyl]-piperidine-3-carboxylic acid (1,2,3,4-tetrahydro-naphthalen-1-yl)-amide]", "pKi": "4.52 to 5.52"},
      {"smiles": "O=C(Nc1cc(Oc2cccc(Cl)c2)ccc1N1CCNCC1)c1cccc2ccccc12", "note": "[Compound 139, Naphthalene-1-carboxylic acid [5-(3-chloro-phenoxy)-2-piperazin-1-yl-phenyl]-amide]", "pKi": "4.52 to 5.52"}
    ]}
  ]
}
